Measured values: US7285572B2, “CaSR antagonist” (Japan Tobacco Inc., priority 2003, dated 2007)

Biological target: T1, CYP2D6 (Homo sapiens, UniProt P10635)
T1 construct: purchased BD Bioscience
Assay: Metabolic enzyme CYP2D6 inhibitory activity (BD Bioscience kit)
Assay type: in vitro ADME
Details: enzyme activity free of test compound as 100%; read-out: CYP2D6 IC50 (concentration showing 50% inhibition)
Experimental: Metabolic Enzyme CYP2D6 Inhibitory Activity
Using a metabolic enzyme CYP2D6 inhibition measurement kit (BD Bioscience) and following the manual of the kit, the inhibitory activity of the test compound was measured. With the enzyme activity free of the test compound as 100%, the concentration (IC50) showing 50% inhibition was determined. The results are shown in Table 8, wherein “>10” means over 10 μM.

T1 sequence (P10635 whole entry): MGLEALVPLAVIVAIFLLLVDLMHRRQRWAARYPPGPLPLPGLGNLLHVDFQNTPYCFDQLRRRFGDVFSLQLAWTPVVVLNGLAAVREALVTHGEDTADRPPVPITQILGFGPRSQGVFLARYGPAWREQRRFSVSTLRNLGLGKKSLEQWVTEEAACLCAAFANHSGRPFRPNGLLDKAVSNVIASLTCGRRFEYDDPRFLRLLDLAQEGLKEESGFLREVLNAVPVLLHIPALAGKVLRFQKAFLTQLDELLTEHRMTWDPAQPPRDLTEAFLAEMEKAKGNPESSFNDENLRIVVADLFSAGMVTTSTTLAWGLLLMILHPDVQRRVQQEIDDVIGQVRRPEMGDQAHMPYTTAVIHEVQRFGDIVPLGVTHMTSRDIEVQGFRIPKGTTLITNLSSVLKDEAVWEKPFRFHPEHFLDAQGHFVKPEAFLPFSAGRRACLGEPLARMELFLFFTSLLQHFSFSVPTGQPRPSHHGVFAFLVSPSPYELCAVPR

IC50 | Compound
8 µM | CC(OC[C@H](O)CNC(C)(C)Cc1ccc2ccccc2c1)c1ccccc1-c1ccc(C(=O)NS(C)(=O)=O)cc1 (stereo partly drawn) [Example 18]

Biological target: T2, human calcium receptor (Homo sapiens, UniProt P41180)
T2 construct: expressed in transfected cells; host or cells: cell strain derived from rat adrenal, co-transfected with luciferase cDNA
T2 sequence (P41180 20-1078): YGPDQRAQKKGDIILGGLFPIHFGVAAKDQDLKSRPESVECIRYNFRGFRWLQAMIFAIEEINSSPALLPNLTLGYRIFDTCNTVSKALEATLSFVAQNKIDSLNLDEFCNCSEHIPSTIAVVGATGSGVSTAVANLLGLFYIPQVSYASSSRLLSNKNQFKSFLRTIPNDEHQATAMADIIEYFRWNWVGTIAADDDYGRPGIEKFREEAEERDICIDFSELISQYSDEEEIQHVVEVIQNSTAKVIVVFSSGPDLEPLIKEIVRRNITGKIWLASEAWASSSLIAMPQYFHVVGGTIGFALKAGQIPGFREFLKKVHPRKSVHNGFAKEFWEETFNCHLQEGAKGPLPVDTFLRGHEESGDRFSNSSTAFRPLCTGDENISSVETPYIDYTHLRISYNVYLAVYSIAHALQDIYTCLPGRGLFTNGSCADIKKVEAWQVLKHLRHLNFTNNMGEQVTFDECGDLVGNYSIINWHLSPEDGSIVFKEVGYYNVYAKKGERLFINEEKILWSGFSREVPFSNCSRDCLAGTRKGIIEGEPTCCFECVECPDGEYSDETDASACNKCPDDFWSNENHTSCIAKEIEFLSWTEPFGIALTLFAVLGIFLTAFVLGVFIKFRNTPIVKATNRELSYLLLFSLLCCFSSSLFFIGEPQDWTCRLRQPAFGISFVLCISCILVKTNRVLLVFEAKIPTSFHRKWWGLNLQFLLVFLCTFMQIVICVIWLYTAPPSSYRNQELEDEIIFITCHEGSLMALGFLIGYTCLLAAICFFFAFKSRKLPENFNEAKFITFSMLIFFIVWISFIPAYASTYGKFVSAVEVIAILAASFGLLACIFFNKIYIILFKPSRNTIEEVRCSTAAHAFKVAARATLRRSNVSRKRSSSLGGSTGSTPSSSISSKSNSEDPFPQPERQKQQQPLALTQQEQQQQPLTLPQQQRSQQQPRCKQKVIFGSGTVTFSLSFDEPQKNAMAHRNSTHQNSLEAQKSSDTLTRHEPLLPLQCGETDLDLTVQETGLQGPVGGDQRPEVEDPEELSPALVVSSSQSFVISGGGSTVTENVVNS
Assay: Evaluation of antagonistic action on calcium receptor using reporter gene (luciferase)
Assay type: cell-based
Details: rat adrenal derived cells with luciferase and human calcium receptor cDNA, 5 mM calcium chloride, 4 hrs; read-out: IC50 (concentration showing 50% inhibitory rate of luciferase activity)
Experimental: Evaluation of Antagonistic Action on Calcium Receptor Using Reporter Gene
Luciferase cDNA and human calcium receptor cDNA were introduced into a cell strain derived from rat adrenal to transform the cells, and the transformed cells were cultured in a medium (80 μl, F12 medium containing 0.5% dialyzed horse serum and 0.25% dialyzed bovine fetal serum). A dimethyl sulfoxide solution containing a test compound at 0.1-10000 μM was diluted 100-fold with the medium and added to the test compound group at 10 μl per well (final concentration of dimethyl sulfoxide is 0.1%). In the same manner as in test compound group, dimethyl sulfoxide diluted 100-fold with medium was added to a control group and a blank group. Then, 50 mM calcium chloride-containing medium was added to every well except the blank group at 10 μl per well (final concentration is 5 mM). A medium alone was added to the blank group. After culture for 4 hrs, luciferase substrate was added and the luciferase activity was measured with a photoluminometer. The inhibitory rate (%) was calculated from the obtained measured values according to the following formula.
Based on the results, the concentration (IC50) showing 50% inhibitory rate was determined.

Compound | IC50
CC(C)(Cc1ccc2ccccc2c1)NC[C@@H](O)COC(C1CC1)C1CC1 [Example 3, (2R)-1-dicyclopropylmethoxy-3-[[2-methyl-1-(naphthalen-2-yl)propan-2-yl]amino]propan-2-ol] | 0.023 µM
CC(OC(=O)OC1CCCCC1)OC(=O)c1ccc(-c2ccccc2C(C)OC[C@H](O)CNC(C)(C)Cc2ccc3ccccc3c2)cc1 (stereo partly drawn) [Example 8, 1-(cyclohexyloxycarbonyloxy)ethyl 2′-[1-[(2R)-2-hydroxy-3-[[2-methyl-1-(naphthalen-2-yl)propan-2-yl]amino]propoxy]ethyl]biphenyl-4-carboxylate] | 0.021 µM
CC(OC[C@H](O)CNC(C)(C)Cc1ccc2ccccc2c1)c1ccccc1-c1ccc(-c2nc(=O)o[nH]2)cc1 (stereo partly drawn) [Example 19] | 0.018 µM
Cc1ccc(CC(C)(C)NC[C@@H](O)CO[C@H](C)c2ccccc2OCc2ccc(C(=O)O)s2)cc1F [Example 30] | 0.183 µM
CC(OC[C@H](O)CNC(C)(C)Cc1ccc2ccccc2c1)c1ccccc1OCC(=O)O (stereo partly drawn) [Example 22] | 0.237 µM
Cc1ccccc1[C@H](OC[C@@H](CNC(C)(C)Cc1ccc2ccccc2c1)OC(=O)/C=C\C(=O)O)C1CC1 [Example 6, (Z)-butenedioic acid mono-[(2R)-1-[(1R)-(cyclopropyl)-(2-methylphenyl)methoxy]-3-[[2-methyl-1-(naphthalen-2-yl)propan-2-yl]amino]propan-2-yl]ester] | 0.079 µM
CC(OC[C@H](O)CNC(C)(C)Cc1ccc2ccccc2c1)c1ccccc1C#CC(=O)O (stereo partly drawn) [Example 10, [2-[1-[(2R)-2-hydroxy-3-[[2-methyl-1-(naphthalen-2-yl)propan-2-yl]amino]propoxy]ethyl]phenyl]propynoic acid] | 0.023 µM
CC(OC[C@H](O)CNC(C)(C)Cc1ccc2ccccc2c1)c1ccccc1-c1ccc(-c2nnn[nH]2)cc1 (stereo partly drawn) [Example 7, (R)-3-[[2-methyl-1-(naphthalen-2-yl)propan-2-yl]amino]-1-[1-[4′-(1H-tetrazol-5-yl)biphenyl-2-yl]ethoxy]propan-2-ol] | 0.011 µM
C[C@@H](OC[C@H](O)CNC(C)(C)Cc1ccc2ccccc2c1)c1ccccc1/C=C/C(=O)O [Example 23] | 0.016 µM
C[C@@H](OC[C@H](O)CNC(C)(C)Cc1ccc2ccccc2c1)c1ccccc1CCCCC(=O)O [Example 25] | 0.018 µM
CC(OC[C@H](O)CNC(C)(C)Cc1ccc2ccccc2c1)c1ccccc1-c1ccc(C(=O)O)s1 (stereo partly drawn) [Example 9, 5-[2-[1-[(2R)-2-hydroxy-3-[[2-methyl-1-(naphthalen-2-yl)propan-2-yl]amino]propoxy]ethyl]phenyl]thiophene-2-carboxylic acid] | 0.014 µM
C[C@@H](OC[C@H](O)CNC(C)(C)Cc1ccc2ccccc2c1)c1ccccc1CCCCCC(=O)O [Example 2, 6-[2-[(1R)-1-[(2R)-2-hydroxy-3-[[2-methyl-1-(naphthalen-2-yl)propan-2-yl]amino]propoxy]ethyl]phenyl]hexanoic acid] | 0.014 µM
C=Cc1ccc(CC(C)(C)NC[C@@H](O)CO[C@H](C)c2ccccc2-c2ccc(C(=O)O)cc2)cc1 [Example 27] | 0.014 µM
C[C@@H](OC[C@H](O)CNC(C)(C)Cc1ccc2ccccc2c1)c1ccccc1OCCCC(=O)O [Example 24] | 0.246 µM
CCOP(=O)(O)c1ccc(-c2ccccc2C(C)OC[C@H](O)CNC(C)(C)Cc2ccc3ccccc3c2)cc1 (stereo partly drawn) [Example 21] | 0.015 µM
CC(OC[C@H](O)CNC(C)(C)Cc1ccc2ccccc2c1)c1ccccc1OCCCCC(=O)O (stereo partly drawn) [Example 26] | 0.19 µM
CCOP(=O)(O)c1ccc(-c2ccccc2[C@@H](C)OC[C@H](O)CNC(C)(C)Cc2ccc3ccccc3c2)cc1 [Example 11, Monoethyl [2′-[(1R)-1-[(2R)-2-hydroxy-3-[[2-methyl-1-(naphthalen-2-yl)propan-2-yl]amino]propoxy]ethyl]biphenyl-4-yl]phosphonate] | 0.008 µM

Continued, values first:

IC50 | Compound
0.055 µM | C[C@@H](OC[C@H](O)CNC(C)(C)Cc1ccc2ccccc2c1)c1ccccc1-c1ccc(N)cc1 [Example 29]
0.145 µM | CC(OC[C@H](O)CNC(C)(C)Cc1ccc2ccccc2c1)c1ccccc1-c1ccc(CC(N)=O)cc1 (stereo partly drawn) [Example 15]
0.104 µM | C[C@@H](OC[C@H](O)CNC(C)(C)Cc1ccc2ccccc2c1)c1ccccc1-c1ccc(C(=O)NO)cc1 [Example 17]
0.03 µM | CC(OC[C@H](O)CNC(C)(C)Cc1ccc2ccccc2c1)c1ccccc1-c1ccc(C(N)=O)cc1 (stereo partly drawn) [Example 20]
0.254 µM | C[C@@H](OC[C@H](O)CNC(C)(C)Cc1ccc2ccccc2c1)c1ccccc1-c1ccc([N+](=O)[O-])cc1 [Example 28]
0.011 µM | C[C@@H](OC[C@H](O)CNC(C)(C)Cc1ccc2ccccc2c1)c1ccccc1-c1cccc(CC(=O)O)c1 [Example 4, [2′-[(1R)-1-[(2R)-2-hydroxy-3-[[2-methyl-1-(naphthalen-2-yl)propan-2-yl]amino]propoxy]ethyl]biphenyl-3-yl]acetic acid]
0.024 µM | CC(=O)NCc1ccc(-c2ccccc2[C@@H](C)OC[C@H](O)CNC(C)(C)Cc2ccc3ccccc3c2)cc1 [Example 5, N-[[2′-[(1R)-1-[(2R)-2-hydroxy-3-[[2-methyl-1-(naphthalen-2-yl)propan-2-yl]amino]propoxy]ethyl]biphenyl-4-yl]methyl]acetamide]
0.022 µM | CC(OC[C@H](O)CNC(C)(C)Cc1ccc2ccccc2c1)c1ccccc1-c1ccc(C(=O)NS(C)(=O)=O)cc1 (stereo partly drawn) [Example 18]
0.16 µM | CCOC(=O)Cc1ccc(-c2ccccc2C(C)OC[C@H](O)CNC(C)(C)Cc2ccc3ccccc3c2)cc1 (stereo partly drawn) [Example 13]
0.135 µM | CC(OC[C@H](O)CNC(C)(C)Cc1ccc2ccccc2c1)c1ccccc1-c1ccc(-c2nsc(=O)[nH]2)cc1 (stereo partly drawn) [Example 16]
0.119 µM | CC(OC[C@H](O)CNC(C)(C)Cc1ccc2ccccc2c1)c1ccccc1-c1ccc(CC(=O)O)cc1 (stereo partly drawn) [Example 14]

Tested on: PTH secretion
Assay: PTH secretagogue action, oral administration to fasted male SD rats, serum PTH by ELISA
Assay type: in vivo, rat
Details: 3 mg/kg oral, test compound administration group
Experimental: The test compound was orally administered to 5 to 9-week-old male SD rats (Charles River Japan, Inc.) fasted for 20 hr, using a solvent (0.5% aqueous methyl cellulose solution) at a dose of 3 mg/5 ml/kg or 30 mg/5 ml/kg. A solvent alone was orally administered to the control group at a dose of 5 ml/kg. The blood was drawn from the tail vein 15 min, 30 min, 60 min and 120 min after the administration of the test compound, and serum was obtained. The serum PTH concentration was measured using rat PTH ELISA kit (Amersham Biosciences).

Compound | serum PTH concentration 15 min later | serum PTH concentration 30 min later | serum PTH concentration 60 min later | serum PTH concentration 120 min later
C[C@@H](OC[C@H](O)CNC(C)(C)Cc1ccc2ccccc2c1)c1ccccc1-c1cccc(CC(=O)O)c1 [Example 4, [2′-[(1R)-1-[(2R)-2-hydroxy-3-[[2-methyl-1-(naphthalen-2-yl)propan-2-yl]amino]propoxy]ethyl]biphenyl-3-yl]acetic acid] | 22.71 ± 2.52 pg/mL | 22.83 ± 2.91 pg/mL | 13.69 ± 2.09 pg/mL | 11.76 ± 1.24 pg/mL
C[C@@H](OC[C@H](O)CNC(C)(C)Cc1ccc2ccccc2c1)c1ccccc1CCCCC(=O)O [Example 25] | 19.16 ± 4.05 pg/mL | 18.15 ± 3.15 pg/mL |  | 

Same assay, conditions: 30 mg/kg oral, test compound administration group

Compound | serum PTH concentration 30 min later | serum PTH concentration 60 min later
Cc1ccccc1[C@H](OC[C@@H](CNC(C)(C)Cc1ccc2ccccc2c1)OC(=O)/C=C\C(=O)O)C1CC1 [Example 6, (Z)-butenedioic acid mono-[(2R)-1-[(1R)-(cyclopropyl)-(2-methylphenyl)methoxy]-3-[[2-methyl-1-(naphthalen-2-yl)propan-2-yl]amino]propan-2-yl]ester] | 14.45 ± 1.45 pg/mL | 13.91 ± 1.62 pg/mL

Tested on: PTH release
Assay: not given
Details: rat PTH (1-34) 5 μg/kg, OVX rat; cited from earlier work

Compound | blood PTH concentration peak in 30 minutes | time for blood PTH concentration to return to the original level
rat PTH (1-34): rat parathyroid hormone fragment (1-34) administered to OVX rat | about 175 pg/ml | 2 h
